Laboratory results: ChEMBL document CHEMBL1140480, “Amino(methyl) pyrrolidines as novel scaffolds for factor Xa inhibitors” (Bioorg Med Chem Lett, 2007)
pIC50: −log10 of the molar value. Values joined by “and” are separate entries in the source; they are usually repeats but may differ in a detail not shown here. Equal entries are not always repeated.

How the values were obtained:
Coagulation factor X = Coagulation factor X (Homo sapiens, UniProt P00742); experiment: Inhibition of F10a
Plasma = experiment: Anticoagulant activity in human plasma assessed as concentration required to double prothrombin time; format: functional
Cytochrome P450 1A2 = target: T1, Cytochrome P450 1A2 (Homo sapiens, UniProt P05177); experiment: Inhibition of CYP1A2; format: ADME
T1 sequence (P05177 whole entry): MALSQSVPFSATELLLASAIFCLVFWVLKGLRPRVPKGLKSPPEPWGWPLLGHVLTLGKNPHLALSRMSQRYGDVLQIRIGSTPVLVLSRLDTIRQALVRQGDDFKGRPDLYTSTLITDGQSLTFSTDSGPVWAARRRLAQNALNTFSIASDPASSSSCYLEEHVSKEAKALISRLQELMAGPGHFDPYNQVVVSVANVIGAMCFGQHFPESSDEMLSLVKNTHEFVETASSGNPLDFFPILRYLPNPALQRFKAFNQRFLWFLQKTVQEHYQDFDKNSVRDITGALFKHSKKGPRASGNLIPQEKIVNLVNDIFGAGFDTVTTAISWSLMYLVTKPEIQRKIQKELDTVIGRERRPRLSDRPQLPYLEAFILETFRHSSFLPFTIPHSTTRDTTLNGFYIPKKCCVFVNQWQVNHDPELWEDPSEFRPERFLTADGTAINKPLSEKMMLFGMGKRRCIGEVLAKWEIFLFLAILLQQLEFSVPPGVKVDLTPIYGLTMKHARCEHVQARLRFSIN

Cytochrome P450 2D6 = Cytochrome P450 2D6 (Homo sapiens, UniProt P10635); experiment: Inhibition of CYP2D6; format: ADME
Sequence of Cytochrome P450 2D6 (P10635 whole entry): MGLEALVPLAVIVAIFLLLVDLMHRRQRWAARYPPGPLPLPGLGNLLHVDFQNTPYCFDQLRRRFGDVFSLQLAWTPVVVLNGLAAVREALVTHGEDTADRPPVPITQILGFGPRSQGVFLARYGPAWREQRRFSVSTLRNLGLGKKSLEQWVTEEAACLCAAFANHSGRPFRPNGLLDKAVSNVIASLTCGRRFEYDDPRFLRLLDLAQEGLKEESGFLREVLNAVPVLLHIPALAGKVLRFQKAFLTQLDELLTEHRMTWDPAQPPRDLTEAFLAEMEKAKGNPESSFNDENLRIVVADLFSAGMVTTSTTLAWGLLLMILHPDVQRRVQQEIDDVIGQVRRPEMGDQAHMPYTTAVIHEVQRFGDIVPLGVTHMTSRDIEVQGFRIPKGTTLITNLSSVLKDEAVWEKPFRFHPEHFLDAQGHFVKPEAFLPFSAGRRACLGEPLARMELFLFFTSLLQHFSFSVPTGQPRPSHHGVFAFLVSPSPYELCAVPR

[1] = target: Coagulation factor IX (Homo sapiens) (UniProt P00740); experiment: Inhibition of F9a
Sequence of Coagulation factor IX (Homo sapiens) (P00740 47-191 limits assumed): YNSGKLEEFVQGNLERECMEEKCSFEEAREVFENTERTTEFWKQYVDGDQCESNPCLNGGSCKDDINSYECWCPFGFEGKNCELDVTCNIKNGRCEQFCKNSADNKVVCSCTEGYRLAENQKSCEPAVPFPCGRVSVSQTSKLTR
Sequence of Coagulation factor IX (Homo sapiens) (P00740 227-461 limits assumed): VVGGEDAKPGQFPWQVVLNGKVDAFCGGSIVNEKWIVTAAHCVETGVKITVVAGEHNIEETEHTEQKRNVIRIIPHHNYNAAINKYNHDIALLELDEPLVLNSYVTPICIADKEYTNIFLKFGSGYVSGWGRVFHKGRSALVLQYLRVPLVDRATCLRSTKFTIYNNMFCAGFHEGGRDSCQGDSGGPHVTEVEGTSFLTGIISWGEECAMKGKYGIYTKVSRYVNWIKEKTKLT

Cytochrome P450 3A4 = Cytochrome P450 3A4 (Homo sapiens, UniProt P08684); experiment: Inhibition of CYP3A4; format: ADME
Sequence of Cytochrome P450 3A4 (P08684 whole entry): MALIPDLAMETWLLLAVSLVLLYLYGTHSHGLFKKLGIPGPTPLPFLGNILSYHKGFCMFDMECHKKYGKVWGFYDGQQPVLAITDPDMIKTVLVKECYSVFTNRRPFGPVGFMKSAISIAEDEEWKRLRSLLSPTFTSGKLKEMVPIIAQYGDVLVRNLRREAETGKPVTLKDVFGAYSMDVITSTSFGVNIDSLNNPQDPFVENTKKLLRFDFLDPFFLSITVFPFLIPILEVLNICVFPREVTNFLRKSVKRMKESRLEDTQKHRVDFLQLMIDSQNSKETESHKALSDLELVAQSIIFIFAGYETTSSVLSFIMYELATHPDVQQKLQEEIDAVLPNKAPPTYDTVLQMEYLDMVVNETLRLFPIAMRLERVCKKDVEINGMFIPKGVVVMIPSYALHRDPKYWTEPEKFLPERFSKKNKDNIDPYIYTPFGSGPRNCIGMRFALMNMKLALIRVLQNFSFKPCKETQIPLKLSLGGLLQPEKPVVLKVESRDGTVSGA

[2] = target: Plasma kallikrein (Homo sapiens) (UniProt P03952); experiment: Inhibition of plasma kallikrein; format: cell-free
Sequence of Plasma kallikrein (Homo sapiens) (P03952 20-390 limits assumed): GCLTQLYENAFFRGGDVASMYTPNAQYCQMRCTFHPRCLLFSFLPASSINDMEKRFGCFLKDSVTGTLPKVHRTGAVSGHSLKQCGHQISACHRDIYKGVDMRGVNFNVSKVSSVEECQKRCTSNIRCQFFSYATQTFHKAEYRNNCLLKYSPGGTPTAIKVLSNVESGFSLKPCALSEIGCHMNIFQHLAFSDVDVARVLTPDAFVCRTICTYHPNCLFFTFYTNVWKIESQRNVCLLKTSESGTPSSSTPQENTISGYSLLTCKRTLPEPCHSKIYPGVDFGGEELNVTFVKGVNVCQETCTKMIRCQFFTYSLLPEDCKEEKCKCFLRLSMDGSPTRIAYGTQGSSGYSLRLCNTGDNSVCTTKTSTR
Sequence of Plasma kallikrein (Homo sapiens) (P03952 391-638 limits assumed): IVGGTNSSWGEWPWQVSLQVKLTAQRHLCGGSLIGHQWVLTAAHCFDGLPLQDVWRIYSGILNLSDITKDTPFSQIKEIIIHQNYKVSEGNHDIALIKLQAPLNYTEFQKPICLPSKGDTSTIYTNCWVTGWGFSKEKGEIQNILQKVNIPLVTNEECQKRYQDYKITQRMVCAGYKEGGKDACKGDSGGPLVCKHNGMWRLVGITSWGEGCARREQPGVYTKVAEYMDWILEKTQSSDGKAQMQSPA

[3] = target: T2, Coagulation factor VII (Homo sapiens) (UniProt P08709); experiment: Inhibition of F7a
T2 sequence (whole entry): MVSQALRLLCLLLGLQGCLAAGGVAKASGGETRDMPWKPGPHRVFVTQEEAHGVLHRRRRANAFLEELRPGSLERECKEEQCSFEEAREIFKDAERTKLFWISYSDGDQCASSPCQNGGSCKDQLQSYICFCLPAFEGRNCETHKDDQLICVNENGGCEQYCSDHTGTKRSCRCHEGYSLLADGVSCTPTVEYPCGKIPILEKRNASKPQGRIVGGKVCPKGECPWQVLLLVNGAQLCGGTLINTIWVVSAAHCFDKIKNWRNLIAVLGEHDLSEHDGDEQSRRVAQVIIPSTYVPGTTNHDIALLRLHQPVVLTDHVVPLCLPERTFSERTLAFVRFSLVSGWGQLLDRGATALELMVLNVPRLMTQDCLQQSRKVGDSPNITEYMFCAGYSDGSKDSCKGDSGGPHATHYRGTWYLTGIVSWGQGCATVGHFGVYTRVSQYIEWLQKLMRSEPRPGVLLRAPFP

Cytochrome P450 2C19 = Cytochrome P450 2C19 (Homo sapiens, UniProt P33261); experiment: Inhibition of CYP2C19; format: ADME
Sequence of Cytochrome P450 2C19 (P33261 whole entry): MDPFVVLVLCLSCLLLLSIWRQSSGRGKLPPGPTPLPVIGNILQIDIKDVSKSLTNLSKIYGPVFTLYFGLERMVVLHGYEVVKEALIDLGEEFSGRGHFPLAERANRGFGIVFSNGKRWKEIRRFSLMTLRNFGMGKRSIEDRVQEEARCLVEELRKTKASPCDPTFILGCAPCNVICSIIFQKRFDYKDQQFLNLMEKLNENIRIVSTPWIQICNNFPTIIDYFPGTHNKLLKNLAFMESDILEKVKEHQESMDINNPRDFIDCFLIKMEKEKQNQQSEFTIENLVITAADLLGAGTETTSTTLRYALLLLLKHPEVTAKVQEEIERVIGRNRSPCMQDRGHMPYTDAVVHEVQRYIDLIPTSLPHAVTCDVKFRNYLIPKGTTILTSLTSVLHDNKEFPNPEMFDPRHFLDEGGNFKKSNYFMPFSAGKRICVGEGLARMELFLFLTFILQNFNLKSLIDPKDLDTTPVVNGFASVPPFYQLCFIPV

Cytochrome P450 2C9 = Cytochrome P450 2C9 (Homo sapiens, UniProt P11712); experiment: Inhibition of CYP2C9; format: ADME
Sequence of Cytochrome P450 2C9 (P11712 whole entry): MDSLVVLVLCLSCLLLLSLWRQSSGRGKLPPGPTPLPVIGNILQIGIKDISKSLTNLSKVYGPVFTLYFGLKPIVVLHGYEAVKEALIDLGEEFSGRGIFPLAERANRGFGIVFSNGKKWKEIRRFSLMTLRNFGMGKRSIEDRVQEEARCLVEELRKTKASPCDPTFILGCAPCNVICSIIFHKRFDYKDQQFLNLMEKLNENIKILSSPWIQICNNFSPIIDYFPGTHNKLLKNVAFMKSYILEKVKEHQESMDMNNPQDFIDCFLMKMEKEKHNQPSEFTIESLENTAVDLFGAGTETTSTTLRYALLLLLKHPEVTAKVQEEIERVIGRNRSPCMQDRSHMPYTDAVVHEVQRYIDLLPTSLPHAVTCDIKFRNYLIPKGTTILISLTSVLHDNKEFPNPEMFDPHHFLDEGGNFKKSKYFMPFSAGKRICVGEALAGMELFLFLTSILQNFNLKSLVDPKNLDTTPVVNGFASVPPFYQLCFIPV

Trypsin (Homo sapiens) = Trypsin (Homo sapiens) (UniProt P07477+P07478+P35030); experiment: Inhibition of trypsin; format: protein assay
[4] = target: Prothrombin (Homo sapiens) (UniProt P00734); experiment: Inhibition of thrombin
[5] = Permeability from apical to basolateral side of the Caco-2 cell membrane at pH 6.5; format: ADME, cell-based; conditions: human, Caco-2, pH 6.5; read-out: permeability

Sequence of Coagulation factor X (P00742 41-179 limits assumed): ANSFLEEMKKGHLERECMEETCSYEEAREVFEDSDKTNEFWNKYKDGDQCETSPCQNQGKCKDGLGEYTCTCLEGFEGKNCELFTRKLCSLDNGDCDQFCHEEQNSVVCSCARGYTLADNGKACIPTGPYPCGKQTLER
Sequence of Coagulation factor X (P00742 235-488 limits assumed): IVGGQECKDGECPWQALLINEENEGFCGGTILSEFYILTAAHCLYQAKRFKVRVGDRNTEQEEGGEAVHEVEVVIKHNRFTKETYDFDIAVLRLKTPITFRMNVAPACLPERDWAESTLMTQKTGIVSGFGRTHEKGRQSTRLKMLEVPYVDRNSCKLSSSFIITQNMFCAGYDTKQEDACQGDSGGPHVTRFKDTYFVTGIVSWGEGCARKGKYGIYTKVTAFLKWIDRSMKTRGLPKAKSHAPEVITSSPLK

pIC50 (Coagulation factor X) | Compound | Activity (Plasma) [µM] | other results
6.89 | O=C(N1CCCC1)N1CC[C@H](CNS(=O)(=O)c2ccc(-c3ccc(Cl)s3)s2)C1 | 130 | –
7.21 | Cc1nccc(N2CCC(C(=O)N3CC[C@@H](CNS(=O)(=O)c4ccc(-c5ccc(Cl)s5)s4)C3)CC2)n1 | 50 | –
7.15 | O=C(C(=O)N1CCC[C@H]1CN1CCCC1)N1CC[C@H](CNS(=O)(=O)/C=C/c2ccc(Cl)s2)C1 | 8 | –
7.74 | O=C(C1CCN(c2ccncc2)CC1)N1CC[C@@H](CNS(=O)(=O)c2ccc(-c3ccc(Cl)s3)s2)C1 | 6.8 | pIC50 (Cytochrome P450 1A2): < 4.70; pIC50 (Cytochrome P450 2D6): 5.10; Activity [1]: > 30 µM; pIC50 (Cytochrome P450 3A4): 5.63 and 6.00; Activity [2]: > 30 µM; Activity [3]: > 30 µM; pIC50 (Cytochrome P450 2C19): 4.85; pIC50 (Cytochrome P450 2C9): 5.83; Activity (Trypsin (Homo sapiens)): > 30 µM; Activity [4]: > 30 µM; Papp A→B [5]: < 1.5 ×10⁻⁶ cm/s
6.64 | Cc1nccc(N2CCC(C(=O)N3CC[C@@H](CNS(=O)(=O)/C=C/c4ccc(Cl)s4)C3)CC2)n1 | 28 | –
6.61 | O=C(C1CCN(c2ccncc2)CC1)N1CCC(CNS(=O)(=O)c2ccc3cc(Cl)ccc3c2)C1 (racemic) | 40 | –

Second part, the compound before the results:

Compound | pIC50 (Coagulation factor X) | Activity (Plasma) [µM] | other results
O=C(C(=O)N1CCC[C@H]1CN1CCCC1)N1CC[C@@H](CNS(=O)(=O)/C=C/c2ccc(Cl)s2)C1 | 6.36 | – | –
O=C(c1ccc(-n2ccnc2)cc1)N1CC[C@H](CNS(=O)(=O)/C=C/c2ccc(Cl)s2)C1 | 5.89 | – | –
O=C(N1CC[C@H](CNS(=O)(=O)c2ccc(-c3ccc(Cl)s3)s2)C1)N1CCC[C@H]1CN1CCCC1 | 7.40 | 13 | –
O=C(C1CCN(c2ccncc2)CC1)N1CC[C@@H](CNS(=O)(=O)/C=C/c2ccc(Cl)s2)C1 | – | 1.7 | –
O=C(C1CCN(c2ccncc2)CC1)N1CCC(CNS(=O)(=O)c2cc3ccc(Cl)cc3s2)C1 (racemic) | 6.59 | 45 | –
Cc1nccc(N2CCC(C(=O)N3CC[C@H](CNS(=O)(=O)/C=C/c4ccc(Cl)s4)C3)CC2)n1 | 6.14 | – | –
NS(=O)(=O)c1ccccc1-c1ccc(C(=O)N2CC[C@@H](CNS(=O)(=O)/C=C/c3ccc(Cl)s3)C2)cc1 | 5.72 | – | –
O=C(C1CCN(c2ccncc2)CC1)N1CCC(CNS(=O)(=O)/C=C/c2cccc(Cl)c2)C1 (racemic) | 5.37 | – | –
O=C(C1CCN(c2ccncc2)CC1)N1CC[C@H](CNS(=O)(=O)/C=C/c2ccc(Cl)s2)C1 | – | 13 | –
O=C(C1CCN(c2ccncc2)CC1)N1CCC(CNS(=O)(=O)c2ccc3ccccc3c2)C1 (racemic) | 5.96 | – | –
O=C(C1CCN(c2ccncc2)CC1)N1CCC(CNS(=O)(=O)/C=C/c2ccc(Br)s2)C1 (racemic) | 7.07 | 8.7 | –
O=C(C1CCN(c2ccncc2)CC1)N1CCC(CNS(=O)(=O)/C=C/c2ccc(Cl)cc2)C1 (racemic) | 6.31 | 32 | –
O=C(C1CCN(c2ccncc2)CC1)N1CC[C@@H](CNS(=O)(=O)/C=C/c2ccc(Br)s2)C1 | 7.66 | 5 | –
